Test results as given in US9302999B2, “Substituted triazoles as herbicides” (E. I. DU PONT DE NEMOURS AND COMPANY, priority 2012, dated 2016).

Legend:
Type in all cases: in vivo
[1] = test system: nutsedge, yellow (yellow nutsedge, Cyperus esculentus); assay: Test C pre-/postemergence: nutsedge, yellow
Method in brief: (§1)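 Preemergence on seeds in loam/sand, postemergence on 2–18 cm (1–4-leaf) plants in peat-based medium; compounds in non-phytotoxic solvent with surfactant. After 13–15 days in greenhouse, visual rating versus controls, 0 (no effect) to 100 (complete control).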

[2] = test system: barnyardgrass (Echinochloa crus-galli); assay: Test A pre-/postemergence: barnyardgrass
Method in brief: (§2)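 Each species received preemergence soil-directed spraying and, at the same time, postemergence treatment of seedlings 2–10 cm tall. Formulation: non-phytotoxic solvent mixture including surfactant. Response assessed visually about ten days on, relative to untreated controls, 0–100 scale.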

[3] = test system: corn (Zea mays); assay: Test C pre-/postemergence: corn
Method in brief: as §1

[4] = test system: foxtail, giant (giant foxtail, Setaria faberii); assay: Test C pre-/postemergence: foxtail, giant
Method in brief: as §1

[5] = test system: blackgrass (Alopecurus myosuroides); assay: Test C pre-/postemergence: blackgrass
Method in brief: as §1

[6] = test system: crabgrass, large (large crabgrass, Digitaria sanguinalis); assay: Test A pre-/postemergence: crabgrass, large
Method in brief: as §2

[7] = test system: lambsquarters (Chenopodium album); assay: Test C pre-/postemergence: lambsquarters
Method in brief: as §1

[8] = test system: wheat (Triticum aestivum); assay: Test A pre-/postemergence: wheat
Method in brief: as §2

[9] = test system: morningglory (Ipomoea coccinea); assay: Test C pre-/postemergence: morningglory
Method in brief: as §1

[10] = test system: pigweed (Amaranthus retroflexus); assay: Test A pre-/postemergence: pigweed
Method in brief: as §2

[11] = test system: large crabgrass (Digitaria sanguinalis); assay: Test C pre-/postemergence: large crabgrass
Method in brief: as §1

[12] = Postemergence, 31 g ai/ha, scale 0 to 100 (0 no effect, 100 complete control)
[13] = Postemergence, 62 g ai/ha, scale 0 to 100 (0 no effect, 100 complete control)
[14] = Postemergence, 125 g ai/ha, scale 0 to 100, 0 no effect, 100 complete control
[15] = Postemergence, 250 g ai/ha, scale 0 to 100 (0 no effect, 100 complete control)
[16] = Preemergence, 31 g ai/ha, scale 0 (no effect) to 100 (complete control)
[17] = Preemergence, 62 g ai/ha, scale of 0 to 100, 0 is no effect, 100 is complete control
[18] = Preemergence, 125 g ai/ha, scale 0 to 100, 0 no effect, 100 complete control
[19] = Preemergence, 250 g ai/ha, scale 0 to 100, 0 no effect, 100 complete control
[20] = Postemergence, 125 g ai/ha, 0 to 100 scale, 0 is no effect, 100 is complete control
[21] = Postemergence, 500 g ai/ha, 0 to 100 scale, 0 is no effect, 100 is complete control
[22] = Preemergence, 125 g ai/ha, 0 to 100 scale where 0 is no effect and 100 is complete control
[23] = Preemergence, 500 g ai/ha, 0 to 100 scale (0 no effect, 100 complete control)
[24] = Postemergence, 250 g ai/ha, scale 0 to 100

CCc1nn(-c2ccc(C(F)(F)F)cc2)nc1Oc1ccnc(C(F)(F)F)c1 [Compound 169]
Plant response rating, Nutsedge, Yellow [1, 12]: 5
Plant response rating, Nutsedge, Yellow [1, 13]: 5
Plant response rating, Nutsedge, Yellow [1, 14]: 10
Plant response rating, Nutsedge, Yellow [1, 15]: 10
Plant response rating, Nutsedge, Yellow [1, 16]: 0
Plant response rating, Nutsedge, Yellow [1, 17]: 5
Plant response rating, Nutsedge, Yellow [1, 18]: 5
Plant response rating, Nutsedge, Yellow [1, 19]: 5
Plant response rating, Barnyardgrass [2, 20]: 80
Barnyardgrass plant response rating [2, 21]: 90
Plant response rating, Barnyardgrass [2, 22]: 80
Plant response rating, Barnyardgrass [2, 23]: 90
Plant response rating, Corn [3, 12]: 10
Plant response rating, Corn [3, 13]: 15
Plant response rating, Corn [3, 14]: 20
Plant response rating, Corn [3, 24]: 30
Plant response rating, Corn [3, 16]: 5
Plant response rating, Corn [3, 17]: 5
Plant response rating, Corn [3, 18]: 10
Plant response rating, Corn [3, 19]: 20
Plant response rating, Foxtail, Giant [4, 12]: 20
Plant response rating, Foxtail, Giant [4, 13]: 65
Plant response rating, Foxtail, Giant [4, 14]: 65
Plant response rating, Foxtail, Giant [4, 24]: 90
Plant response rating, Foxtail, Giant [4, 16]: 100
Plant response rating, Foxtail, Giant [4, 17]: 100
Plant response rating, Foxtail, Giant [4, 18]: 100
Plant response rating, Foxtail, Giant [4, 19]: 100
Plant response rating, Blackgrass [5, 12]: 5
Plant response rating, Blackgrass [5, 13]: 15
Plant response rating, Blackgrass [5, 14]: 35
Plant response rating, Blackgrass [5, 24]: 50
Plant response rating, Blackgrass [5, 16]: 80
Plant response rating, Blackgrass [5, 17]: 90
Plant response rating, Blackgrass [5, 18]: 95
Plant response rating, Blackgrass [5, 19]: 95
Plant response rating, Crabgrass, Large [6, 20]: 90
Crabgrass, Large plant response rating [6, 21]: 90
Plant response rating, Crabgrass, Large [6, 22]: 100
Plant response rating, Crabgrass, Large [6, 23]: 100
Plant response rating, Lambsquarters [7, 12]: 90
Plant response rating, Lambsquarters [7, 13]: 90
Plant response rating, Lambsquarters [7, 14]: 98
Plant response rating, Lambsquarters [7, 15]: 98
Plant response rating, Lambsquarters [7, 16]: 90
Plant response rating, Lambsquarters [7, 17]: 90
Plant response rating, Lambsquarters [7, 18]: 90
Plant response rating, Lambsquarters [7, 19]: 90
Plant response rating, Wheat [8, 20]: 30
Wheat plant response rating [8, 21]: 40
Plant response rating, Wheat [8, 22]: 20
Plant response rating, Wheat [8, 23]: 50
Plant response rating, Morningglory [9, 12]: 98
Plant response rating, Morningglory [9, 14]: 100
Plant response rating, Morningglory [9, 15]: 100
Plant response rating, Morningglory [9, 16]: 25
Plant response rating, Morningglory [9, 17]: 55
Plant response rating, Morningglory [9, 18]: 80
Plant response rating, Morningglory [9, 19]: 85
Plant response rating, Pigweed [10, 20]: 100
Pigweed plant response rating [10, 21]: 100
Plant response rating, Pigweed [10, 22]: 100
Plant response rating, Pigweed [10, 23]: 100
Plant response rating, Crabgrass, Large [11, 12]: 35
Plant response rating, Crabgrass, Large [11, 13]: 35
Plant response rating, Crabgrass, Large [11, 14]: 40
Plant response rating, Crabgrass, Large [11, 24]: 80
Plant response rating, Crabgrass, Large [11, 16]: 100
Plant response rating, Crabgrass, Large [11, 17]: 100
Plant response rating, Crabgrass, Large [11, 18]: 100
Plant response rating, Crabgrass, Large [11, 19]: 100

CCCc1nn(-c2ccc(F)cc2)nc1Oc1ccnc(C(F)(F)F)c1 [Compound 168]
Plant response rating, Nutsedge, Yellow [1, 12]: 10
Plant response rating, Nutsedge, Yellow [1, 13]: 10
Plant response rating, Nutsedge, Yellow [1, 14]: 15
Plant response rating, Nutsedge, Yellow [1, 15]: 20
Plant response rating, Nutsedge, Yellow [1, 16]: 0
Plant response rating, Nutsedge, Yellow [1, 17]: 0
Plant response rating, Nutsedge, Yellow [1, 18]: 5
Plant response rating, Nutsedge, Yellow [1, 19]: 5
Plant response rating, Barnyardgrass [2, 20]: 90
Barnyardgrass plant response rating [2, 21]: 90
Plant response rating, Barnyardgrass [2, 22]: 90
Plant response rating, Barnyardgrass [2, 23]: 100
Plant response rating, Corn [3, 12]: 15
Plant response rating, Corn [3, 13]: 15
Plant response rating, Corn [3, 14]: 30
Plant response rating, Corn [3, 24]: 45
Plant response rating, Corn [3, 16]: 5
Plant response rating, Corn [3, 17]: 15
Plant response rating, Corn [3, 18]: 25
Plant response rating, Corn [3, 19]: 55
Plant response rating, Foxtail, Giant [4, 12]: 55
Plant response rating, Foxtail, Giant [4, 13]: 65
Plant response rating, Foxtail, Giant [4, 14]: 95
Plant response rating, Foxtail, Giant [4, 24]: 95
Plant response rating, Foxtail, Giant [4, 16]: 100
Plant response rating, Foxtail, Giant [4, 17]: 100
Plant response rating, Foxtail, Giant [4, 18]: 100
Plant response rating, Foxtail, Giant [4, 19]: 100
Plant response rating, Blackgrass [5, 12]: 45
Plant response rating, Blackgrass [5, 13]: 45
Plant response rating, Blackgrass [5, 14]: 80
Plant response rating, Blackgrass [5, 24]: 80
Plant response rating, Blackgrass [5, 16]: 90
Plant response rating, Blackgrass [5, 17]: 90
Plant response rating, Blackgrass [5, 18]: 95
Plant response rating, Blackgrass [5, 19]: 98
Plant response rating, Crabgrass, Large [6, 20]: 90
Crabgrass, Large plant response rating [6, 21]: 90
Plant response rating, Crabgrass, Large [6, 22]: 100
Plant response rating, Crabgrass, Large [6, 23]: 100
Plant response rating, Lambsquarters [7, 12]: 80
Plant response rating, Lambsquarters [7, 13]: 95
Plant response rating, Lambsquarters [7, 14]: 95
Plant response rating, Lambsquarters [7, 15]: 95
Plant response rating, Lambsquarters [7, 16]: 98
Plant response rating, Lambsquarters [7, 17]: 98
Plant response rating, Lambsquarters [7, 18]: 98
Plant response rating, Lambsquarters [7, 19]: 98
Plant response rating, Wheat [8, 20]: 40
Wheat plant response rating [8, 21]: 50
Plant response rating, Wheat [8, 22]: 40
Plant response rating, Wheat [8, 23]: 60
Plant response rating, Morningglory [9, 12]: 50
Plant response rating, Morningglory [9, 13]: 80
Plant response rating, Morningglory [9, 14]: 90
Plant response rating, Morningglory [9, 15]: 90
Plant response rating, Morningglory [9, 16]: 45
Plant response rating, Morningglory [9, 17]: 55
Plant response rating, Morningglory [9, 18]: 55
Plant response rating, Morningglory [9, 19]: 80
Plant response rating, Pigweed [10, 20]: 100
Pigweed plant response rating [10, 21]: 100
Plant response rating, Pigweed [10, 22]: 100
Plant response rating, Pigweed [10, 23]: 100
Plant response rating, Crabgrass, Large [11, 12]: 30
Plant response rating, Crabgrass, Large [11, 13]: 65
Plant response rating, Crabgrass, Large [11, 14]: 95
Plant response rating, Crabgrass, Large [11, 24]: 95
Plant response rating, Crabgrass, Large [11, 16]: 100
Plant response rating, Crabgrass, Large [11, 17]: 100
Plant response rating, Crabgrass, Large [11, 18]: 100
Plant response rating, Crabgrass, Large [11, 19]: 100
